For one assay, the system named is MV4;11 cells. Put plainly: MV4;11 in vitro inhibition of proliferation assay (CellTiter-Glo, 72 hours). The format is cell-based. The conditions noted are these: Homo sapiens, MV4-11, 72 h, IC50 class, read-out: Inhibitory activity of cell proliferation MV4;11. A digest of the protocol: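 IC50 came from four-parameter fitting of inhibition rates, based on CellTiter-Glo luminescence after 72 hours at 37° C. Each well held 2000 MV4;11 cells grown in IMDM with 10% serum. Compounds formed a nine-point, threefold DMSO series starting at 10 uM, tested in triplicate at 0.3% final DMSO.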
Background: ATP-based viability assays read luminescence as a measure of living cells.

For a further assay, the target named is T1, FLT3 (Homo sapiens, UniProt P36888).
T1 construct: purchased Carna 08-145
T1 sequence (P36888 27-993): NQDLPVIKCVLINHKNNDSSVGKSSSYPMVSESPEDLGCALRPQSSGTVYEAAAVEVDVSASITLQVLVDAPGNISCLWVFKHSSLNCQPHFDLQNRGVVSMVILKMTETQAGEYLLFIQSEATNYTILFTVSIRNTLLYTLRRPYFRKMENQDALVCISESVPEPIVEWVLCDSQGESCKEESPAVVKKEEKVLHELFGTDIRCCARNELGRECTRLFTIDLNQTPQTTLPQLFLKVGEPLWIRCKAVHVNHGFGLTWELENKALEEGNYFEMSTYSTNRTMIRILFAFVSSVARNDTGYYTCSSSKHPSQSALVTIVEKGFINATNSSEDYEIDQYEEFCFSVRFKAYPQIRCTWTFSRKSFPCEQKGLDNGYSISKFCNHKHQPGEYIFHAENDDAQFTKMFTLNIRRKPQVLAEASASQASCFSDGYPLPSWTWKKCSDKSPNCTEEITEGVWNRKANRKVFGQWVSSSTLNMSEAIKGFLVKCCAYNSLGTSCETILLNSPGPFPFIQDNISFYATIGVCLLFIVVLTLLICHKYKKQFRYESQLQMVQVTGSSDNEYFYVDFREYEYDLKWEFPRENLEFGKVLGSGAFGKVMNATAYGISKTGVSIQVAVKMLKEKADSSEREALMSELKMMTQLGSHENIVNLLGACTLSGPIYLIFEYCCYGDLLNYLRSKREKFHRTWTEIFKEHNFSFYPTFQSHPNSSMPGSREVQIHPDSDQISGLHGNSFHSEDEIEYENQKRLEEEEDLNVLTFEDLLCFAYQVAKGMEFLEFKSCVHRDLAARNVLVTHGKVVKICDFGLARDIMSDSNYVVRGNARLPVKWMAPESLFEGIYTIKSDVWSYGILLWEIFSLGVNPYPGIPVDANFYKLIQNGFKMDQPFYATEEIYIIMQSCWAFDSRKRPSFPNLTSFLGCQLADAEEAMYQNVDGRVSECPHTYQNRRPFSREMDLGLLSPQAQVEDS
Put plainly: FLT3 kinase in vitro inhibitory activity experiment (Caliper mobility shift, conversion rate). Particulars: IC50 class, read-out: Enzyme activity FLT3. It counts as biochemical. The essentials: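 Tested in single wells as ten 3-fold dilutions of a 1 μM initial stock. Compound and FLT3 stood 10 min at room temperature; ATP with Kinase substrate 2 was then added for 30 min at room temperature and the reaction stopped. Conversion was measured by Caliper mobility shift, and inhibition was normalised to control-well conversion.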

The text below walks through data of US12673947B2 (Cytosinlab Therapeutics Co., Ltd., priority 2020, dated 2026).

Take `CCc1nc2c(N)ncc(-c3cnn(C4CCN(C5CCN(C(C)C)CC5)CC4)c3)c2nc1NC1CCOCC1` [Compound 236]: the values for the IC50 in the assay on MV4;11 cells and on FLT3 were 10 to 100 nM and at most 10 nM, respectively.

For `CCc1nc2c(N)ncc(-c3cnn(C4CCN(C5CCOCC5)CC4)c3)c2nc1NC1CCOCC1` [Compound 237], the values for the IC50 in the assay with MV4;11 cells and on FLT3 were 10 to 100 nM and at most 10 nM, respectively.

For `CCc1nc2c(N)ncc(-c3cnn(C4CCN(C5COC5)CC4)c3)c2nc1NC1CCOCC1` [Compound 238], the IC50 in the assay with MV4;11 cells is 10 to 100 nM; on FLT3, at most 10 nM.

Consider `CCc1nc2c(N)ncc(-c3cnn(C4CCN(C5CCN(CCO)CC5)CC4)c3)c2nc1NC1CCOCC1` [Compound 239], for which the IC50 was 10 to 100 nM in the assay with MV4;11 cells and at most 10 nM on FLT3.

In the case of `CCc1nc2c(N)ncc(-c3cnn(C4CCN(C5CCN(CCOC)CC5)CC4)c3)c2nc1NC1CCOCC1` [Compound 240], the IC50 in the assay on MV4;11 cells was 10 to 100 nM; on FLT3, at most 10 nM.

As for `CCc1nc2c(N)ncc(-c3cnn(C4CCN(C5CCN(CC(C)C)CC5)CC4)c3)c2nc1NC1CCOCC1` [Compound 241], the IC50 in the assay on MV4;11 cells is 10 to 100 nM; on FLT3, at most 10 nM.

As to `CCc1nc2c(N)ncc(-c3cnn(C4CCN(C5CN(C)C5)CC4)c3)c2nc1NC1CCOCC1` [Compound 242], the IC50 in the assay with MV4;11 cells was 10 to 100 nM; on FLT3 it was at most 10 nM.

Consider `CCc1nc2c(N)ncc(-c3cnn(C4CCN(C5CCN(C6CC6)CC5)CC4)c3)c2nc1NC1CCOCC1` [Compound 243], for which the IC50 with MV4;11 cells and at FLT3 was at most 10 nM each time.

As for `CCc1nc2c(N)ncc(-c3cnn(C4CCN(C5CCN(CC)CC5)CC4)c3)c2nc1N[C@H]1CCOC1` [Compound 244], the IC50 was 10 to 100 nM with MV4;11 cells and at most 10 nM on FLT3.

Take `CCc1nc2c(N)ncc(-c3cnn(C4CCN(C5CCN(CC)CC5)CC4)c3)c2nc1N[C@@H]1CC[C@H](O)C1` [Compound 245]: the IC50 in the assay on MV4;11 cells and on FLT3 was at most 10 nM each time.

`CCc1nc2c(N)ncc(-c3cnn(C4CCN(C5CCN(CC)CC5)CC4)c3)c2nc1NC1CCCC(O)C1` (stereo not drawn) [Compound 246, 3-((5-amino-3-ethyl-8-(1-(1′-ethyl-[1,4′-bipiperidine]-4-yl)-1H-pyrazol-4-yl)pyridino[3,4-b]pyrazine-2-yl)amino)cyclohexan-1-ol]: the IC50 with MV4;11 cells and at FLT3 was at most 10 nM each time.

Turning to `CCc1nc2c(N)ncc(-c3cnn(C4CCN(C5CCN(C)CC5)CC4)c3)c2nc1NC1CCOC1` (stereo not drawn) [Compound 247], the values for the IC50 in the assay with MV4;11 cells and on FLT3 were 10 to 100 nM and at most 10 nM, respectively.

Consider `CCc1nc2c(N)ncc(-c3cnn(C4CCN(C5CCN(C)CC5)CC4)c3)c2nc1N[C@H]1CCOC1` [Compound 248], for which the values for the IC50 in the assay on MV4;11 cells and on FLT3 were 10 to 100 nM and at most 10 nM, respectively.

On to `CCc1nc2c(N)ncc(-c3cnn(C4CCN(C5CCN(C)CC5)CC4)c3)c2nc1N[C@@H]1CC[C@H](O)C1` [Compound 249], for which the IC50 in the assay with MV4;11 cells and at FLT3 was at most 10 nM each time.

Take `CCc1nc2c(N)ncc(-c3ccc(N4CCC(N5CCN(C)CC5)CC4)c(OC)c3)c2nc1N[C@@H]1CCOC1` [Compound 251]: the IC50 in the assay on MV4;11 cells was 10 to 100 nM; on FLT3, at most 10 nM.

For the compound `CCc1nc2c(N)ncc(-c3ccc(N4CCC(N5CCN(C)CC5)CC4)c(OC)c3)c2nc1N[C@H]1CCOC1` [Compound 252], the IC50 with MV4;11 cells is 10 to 100 nM; at FLT3, at most 10 nM.

`CCc1nc2c(N)ncc(-c3ccc(N4CCC(N5CCN(CC)CC5)CC4)c(OC)c3)c2nc1N[C@@H]1CC[C@H](O)C1` [Compound 253]: the IC50 in the assay on MV4;11 cells and at FLT3 was at most 10 nM throughout.

For `CCc1nc2c(N)ncc(-c3ccc(N4CCC(N5CCN(C)CC5)CC4)c(OC)c3)c2nc1N[C@@H]1CCC[C@H](O)C1` [Compound 257], the IC50 with MV4;11 cells and on FLT3 was at most 10 nM each time.

On to `CCc1nc2c(N)ncc(-c3cnn(C4CCN(C(C)C)CC4)c3)c2nc1N[C@@H]1CCC[C@H](O)C1` [Compound 260], for which the IC50 with MV4;11 cells and at FLT3 was at most 10 nM throughout.

Regarding `CCc1nc2c(N)ncc(-c3cnn(C4CCN(C)CC4)c3)c2nc1N1CCC(O)C1` (stereo not drawn) [Compound 261], the IC50 in the assay on MV4;11 cells was 10 to 100 nM; on FLT3, at most 10 nM.

For the compound `CCc1nc2c(N)ncc(-c3ccc(N4C[C@@H](C)O[C@@H](C)C4)c(OC)c3)c2nc1N[C@@H]1CC[C@H](O)C1` [Compound 265], the IC50 in the assay on MV4;11 cells was 10 to 100 nM; on FLT3, at most 10 nM.

Take `CCc1nc2c(N)ncc(-c3ccc(N4CC5CCC(C4)O5)c(OC)c3)c2nc1N[C@@H]1CC[C@H](O)C1` [Compound 266]: the IC50 in the assay on MV4;11 cells was 10 to 100 nM; at FLT3, at most 10 nM.

Turning to `CCc1nc2c(N)ncc(-c3ccc(N4C[C@H](C)O[C@@H](C)C4)c(OC)c3)c2nc1N[C@@H]1CC[C@H](O)C1` [Compound 267], the IC50 in the assay with MV4;11 cells was 10 to 100 nM; at FLT3 it was at most 10 nM.

With `CCc1nc2c(N)ncc(-c3ccc(N4CCC(N5CCN(C)CC5)CC4)c(C(F)F)c3)c2nc1NC1CCOCC1` [Compound 268], the IC50 with MV4;11 cells is 10 to 100 nM; at FLT3, at most 10 nM.

For `CCc1nc2c(N)ncc(-c3cnn(-c4ncncc4C)c3)c2nc1N[C@@H]1CC[C@H](O)C1` [Compound 269, (1S,3R)-3-((5-amino-3-ethyl-8-(1-(5-methylpyrimidin-4-yl)-1H-pyrazol-4-yl)pyridino[3,4-b]pyrazin-2-yl)amino)cyclopentan-1-ol], the IC50 with MV4;11 cells and on FLT3 was at most 10 nM in each case.

With `CCc1nc2c(N)ncc(-c3cnn(-c4cc(C)nc(C)n4)c3)c2nc1N[C@@H]1CC[C@H](O)C1` [Compound 270], the values for the IC50 with MV4;11 cells and on FLT3 were 10 to 100 nM and at most 10 nM, respectively.

For `CCc1nc2c(N)ncc(-c3cnn(-c4cccc(C)n4)c3)c2nc1N[C@@H]1CC[C@H](O)C1` [Compound 271], the IC50 in the assay on MV4;11 cells was 10 to 100 nM; at FLT3, at most 10 nM.

`CCc1nc2c(N)ncc(-c3cnn(-c4ccnc(C)c4)c3)c2nc1N[C@@H]1CC[C@H](O)C1` [Compound 272]: the IC50 in the assay with MV4;11 cells and at FLT3 was at most 10 nM each time.

For `CCc1nc2c(N)ncc(-c3cnn(-c4ccn(C(C)C)c(=O)c4)c3)c2nc1N[C@@H]1CC[C@H](O)C1` [Compound 273], the IC50 with MV4;11 cells and on FLT3 was at most 10 nM each time.

Turning to `CCc1nc2c(N)ncc(-c3cnn(-c4ccnc(C(F)(F)F)n4)c3)c2nc1N[C@@H]1CC[C@H](O)C1` [Compound 274], the values for the IC50 in the assay with MV4;11 cells and at FLT3 were 10 to 100 nM and at most 10 nM, respectively.

Take `CCc1nc2c(N)ncc(-c3cnn(-c4ccc(OC(C)C)nc4)c3)c2nc1N[C@@H]1CC[C@H](O)C1` [Compound 275]: the IC50 is 10 to 100 nM in the assay with MV4;11 cells and at most 10 nM at FLT3.

Take `CCc1nc2c(N)ncc(-c3cnn(-c4ccc(C(C)(C)O)cn4)c3)c2nc1N[C@@H]1CC[C@H](O)C1` [Compound 276]: the IC50 in the assay on MV4;11 cells and at FLT3 was at most 10 nM each time.

With `CCc1nc2c(N)ncc(-c3cnn(-c4ccc(C5CCCCC5)cc4)c3)c2nc1N[C@@H]1CC[C@H](O)C1` [Compound 277], the IC50 lay within 100 to 500 nM in the assay with MV4;11 cells and 10 to 100 nM on FLT3.

Take `CCc1nc2c(N)ncc(-c3cnn(-c4ccc(C5CCNCC5)cc4)c3)c2nc1N[C@@H]1CC[C@H](O)C1` [Compound 278]: the IC50 in the assay with MV4;11 cells and at FLT3 was at most 10 nM in each case.

In the case of `CCc1nc2c(N)ncc(-c3cnn(-c4ccc(Cl)c(C)c4)c3)c2nc1N[C@@H]1CC[C@H](O)C1` [Compound 279], the IC50 in the assay with MV4;11 cells and on FLT3 was 10 to 100 nM throughout.

As for `CCc1nc2c(N)ncc(-c3cnn(-c4ccnc(C)n4)c3)c2nc1NC1CCOCC1` [Compound 280], the IC50 with MV4;11 cells and at FLT3 was at most 10 nM throughout.

Turning to `CCc1nc2c(N)ncc(-c3cnn(-c4ccnc(C)n4)c3)c2nc1N[C@H]1CCOC1` [Compound 281], the IC50 in the assay on MV4;11 cells and on FLT3 was 10 to 100 nM each time.

For `CCc1nc2c(N)ncc(-c3cnn(C4CCS(=O)(=O)CC4)c3)c2nc1N[C@@H]1CC[C@H](O)C1` [Compound 282], the figures for the IC50 in the assay with MV4;11 cells and at FLT3 were 10 to 100 nM and at most 10 nM, respectively.

Turning to `CCc1nc2c(N)ncc(-c3cnn(C4CCc5cc(F)cc(F)c5CC4)c3)c2nc1N[C@@H]1CC[C@H](O)C1` (stereo partly drawn) [Compound 283], the IC50 was 10 to 100 nM with MV4;11 cells and at most 10 nM on FLT3.
